Assay results as given in ChEMBL document CHEMBL5291721, “A preclinical secondary pharmacology resource illuminates target-adverse drug reaction associations of marketed drugs” (Nat Commun, 2023).

Key:
[1] = target: Beta-3 adrenergic receptor (Homo sapiens, UniProt P13945)
B1 bradykinin receptor = target: T1, B1 bradykinin receptor (Homo sapiens, UniProt P46663)
T1 sequence (P46663 whole entry): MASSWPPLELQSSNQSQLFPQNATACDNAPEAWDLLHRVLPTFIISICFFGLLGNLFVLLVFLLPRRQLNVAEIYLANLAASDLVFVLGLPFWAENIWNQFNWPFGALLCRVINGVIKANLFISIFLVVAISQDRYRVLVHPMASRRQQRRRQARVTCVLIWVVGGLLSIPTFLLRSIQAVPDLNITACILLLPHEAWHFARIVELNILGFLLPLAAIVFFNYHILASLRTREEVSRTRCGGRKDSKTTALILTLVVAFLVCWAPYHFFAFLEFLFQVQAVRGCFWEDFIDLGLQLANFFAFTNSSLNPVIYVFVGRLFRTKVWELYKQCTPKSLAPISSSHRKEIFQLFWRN

[2] = target: Voltage-dependent N-type calcium channel subunit alpha-1B (Rattus norvegicus, UniProt Q02294); type: functional
D(4) dopamine receptor = target: T2, D(4) dopamine receptor (Homo sapiens, UniProt P21917)
T2 sequence (P21917 whole entry): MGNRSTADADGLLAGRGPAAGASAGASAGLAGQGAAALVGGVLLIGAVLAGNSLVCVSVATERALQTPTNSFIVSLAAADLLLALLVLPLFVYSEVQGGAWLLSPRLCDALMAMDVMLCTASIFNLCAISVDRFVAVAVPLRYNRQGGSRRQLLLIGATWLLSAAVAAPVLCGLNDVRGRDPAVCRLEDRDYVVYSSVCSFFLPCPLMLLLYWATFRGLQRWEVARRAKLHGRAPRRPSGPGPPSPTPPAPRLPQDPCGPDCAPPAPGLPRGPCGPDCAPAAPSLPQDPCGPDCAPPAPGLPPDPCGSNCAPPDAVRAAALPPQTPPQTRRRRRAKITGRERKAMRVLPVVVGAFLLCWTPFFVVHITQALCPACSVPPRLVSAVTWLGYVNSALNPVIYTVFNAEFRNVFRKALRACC

Glucagon receptor = Glucagon receptor (Homo sapiens, UniProt P47871)
Chain of Glucagon receptor (P47871 whole entry): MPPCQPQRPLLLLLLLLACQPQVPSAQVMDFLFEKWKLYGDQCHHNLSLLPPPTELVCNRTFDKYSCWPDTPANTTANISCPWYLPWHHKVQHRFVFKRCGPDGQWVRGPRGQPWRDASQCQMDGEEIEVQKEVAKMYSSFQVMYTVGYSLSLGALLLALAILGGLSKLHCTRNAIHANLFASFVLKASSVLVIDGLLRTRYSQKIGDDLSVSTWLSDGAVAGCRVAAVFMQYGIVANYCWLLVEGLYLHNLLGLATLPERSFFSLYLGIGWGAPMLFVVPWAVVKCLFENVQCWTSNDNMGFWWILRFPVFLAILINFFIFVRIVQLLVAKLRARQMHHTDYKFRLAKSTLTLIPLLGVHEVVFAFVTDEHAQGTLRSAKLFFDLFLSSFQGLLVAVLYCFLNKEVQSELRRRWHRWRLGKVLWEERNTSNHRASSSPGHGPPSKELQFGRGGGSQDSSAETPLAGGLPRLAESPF

Histamine H2 receptor = Histamine H2 receptor (Homo sapiens, UniProt P25021)
Chain of Histamine H2 receptor (P25021 whole entry): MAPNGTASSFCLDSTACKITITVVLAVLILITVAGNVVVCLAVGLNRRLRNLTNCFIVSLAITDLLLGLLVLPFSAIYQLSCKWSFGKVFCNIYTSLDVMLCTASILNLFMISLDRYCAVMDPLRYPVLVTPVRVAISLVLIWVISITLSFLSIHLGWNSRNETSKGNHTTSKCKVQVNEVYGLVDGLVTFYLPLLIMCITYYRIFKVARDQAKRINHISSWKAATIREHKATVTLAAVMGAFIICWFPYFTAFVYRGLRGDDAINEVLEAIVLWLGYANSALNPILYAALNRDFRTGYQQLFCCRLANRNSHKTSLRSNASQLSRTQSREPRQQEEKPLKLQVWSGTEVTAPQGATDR

[3] = target: 5-hydroxytryptamine receptor 6 (Homo sapiens, UniProt P50406)
Chain of 5-hydroxytryptamine receptor 6 (P50406 whole entry): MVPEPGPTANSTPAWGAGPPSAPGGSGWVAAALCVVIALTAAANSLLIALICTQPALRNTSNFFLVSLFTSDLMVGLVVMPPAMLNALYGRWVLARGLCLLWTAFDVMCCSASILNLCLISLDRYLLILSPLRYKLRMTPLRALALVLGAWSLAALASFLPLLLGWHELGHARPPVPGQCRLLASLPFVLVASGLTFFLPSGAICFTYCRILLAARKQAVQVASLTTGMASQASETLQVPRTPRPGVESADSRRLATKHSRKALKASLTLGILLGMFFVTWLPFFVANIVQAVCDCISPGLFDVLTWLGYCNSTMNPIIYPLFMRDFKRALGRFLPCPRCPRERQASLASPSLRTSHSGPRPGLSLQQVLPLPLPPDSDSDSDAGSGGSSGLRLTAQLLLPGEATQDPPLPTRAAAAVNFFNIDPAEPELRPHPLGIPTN

[4] = target: 5-hydroxytryptamine receptor 7 (Homo sapiens, UniProt P34969)
Chain of 5-hydroxytryptamine receptor 7 (P34969 whole entry): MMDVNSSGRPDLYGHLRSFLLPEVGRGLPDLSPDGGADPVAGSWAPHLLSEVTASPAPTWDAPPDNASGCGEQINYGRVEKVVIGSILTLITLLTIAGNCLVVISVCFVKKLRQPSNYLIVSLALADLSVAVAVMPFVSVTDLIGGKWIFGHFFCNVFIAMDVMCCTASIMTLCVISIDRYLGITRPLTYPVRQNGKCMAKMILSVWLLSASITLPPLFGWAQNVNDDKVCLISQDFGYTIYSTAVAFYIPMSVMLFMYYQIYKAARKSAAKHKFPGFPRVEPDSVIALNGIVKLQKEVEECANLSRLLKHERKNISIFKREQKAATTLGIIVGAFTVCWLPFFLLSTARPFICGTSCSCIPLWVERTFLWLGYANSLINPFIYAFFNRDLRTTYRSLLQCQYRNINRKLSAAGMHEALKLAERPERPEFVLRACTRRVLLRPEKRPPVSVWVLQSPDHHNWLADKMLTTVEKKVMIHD

[5] = target: T3, Neuropeptide Y receptor type 2 (Homo sapiens, UniProt P49146)
T3 sequence (P49146 whole entry): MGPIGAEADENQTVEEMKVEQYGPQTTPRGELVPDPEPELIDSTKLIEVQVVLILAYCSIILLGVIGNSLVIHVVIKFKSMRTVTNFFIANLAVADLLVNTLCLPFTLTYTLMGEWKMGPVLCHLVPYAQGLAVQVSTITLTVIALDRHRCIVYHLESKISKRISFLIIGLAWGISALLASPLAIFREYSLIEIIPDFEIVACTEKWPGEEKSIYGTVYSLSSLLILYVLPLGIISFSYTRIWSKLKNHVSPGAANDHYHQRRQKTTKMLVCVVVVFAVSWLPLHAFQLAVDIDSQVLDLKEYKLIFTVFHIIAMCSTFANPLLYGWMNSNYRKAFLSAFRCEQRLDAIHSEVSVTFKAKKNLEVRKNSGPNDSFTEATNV

[6] = target: Neurotensin receptor type 1 (Homo sapiens, UniProt P30989)
Chain of Neurotensin receptor type 1 (P30989 whole entry): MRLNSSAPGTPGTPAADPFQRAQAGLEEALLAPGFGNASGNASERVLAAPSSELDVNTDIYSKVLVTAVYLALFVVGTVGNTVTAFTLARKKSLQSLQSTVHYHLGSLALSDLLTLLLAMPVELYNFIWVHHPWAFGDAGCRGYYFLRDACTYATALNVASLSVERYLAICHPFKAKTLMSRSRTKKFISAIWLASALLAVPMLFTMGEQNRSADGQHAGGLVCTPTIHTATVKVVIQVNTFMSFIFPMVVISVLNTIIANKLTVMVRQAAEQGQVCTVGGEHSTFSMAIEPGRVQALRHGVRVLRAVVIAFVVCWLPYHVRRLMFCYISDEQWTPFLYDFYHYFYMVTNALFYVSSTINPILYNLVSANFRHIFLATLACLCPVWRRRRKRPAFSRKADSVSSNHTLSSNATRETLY

[7] = target: Sodium channel protein type 5 subunit alpha (Homo sapiens, UniProt Q14524); type: functional, cell-based
Chain of Sodium channel protein type 5 subunit alpha (Q14524 whole entry): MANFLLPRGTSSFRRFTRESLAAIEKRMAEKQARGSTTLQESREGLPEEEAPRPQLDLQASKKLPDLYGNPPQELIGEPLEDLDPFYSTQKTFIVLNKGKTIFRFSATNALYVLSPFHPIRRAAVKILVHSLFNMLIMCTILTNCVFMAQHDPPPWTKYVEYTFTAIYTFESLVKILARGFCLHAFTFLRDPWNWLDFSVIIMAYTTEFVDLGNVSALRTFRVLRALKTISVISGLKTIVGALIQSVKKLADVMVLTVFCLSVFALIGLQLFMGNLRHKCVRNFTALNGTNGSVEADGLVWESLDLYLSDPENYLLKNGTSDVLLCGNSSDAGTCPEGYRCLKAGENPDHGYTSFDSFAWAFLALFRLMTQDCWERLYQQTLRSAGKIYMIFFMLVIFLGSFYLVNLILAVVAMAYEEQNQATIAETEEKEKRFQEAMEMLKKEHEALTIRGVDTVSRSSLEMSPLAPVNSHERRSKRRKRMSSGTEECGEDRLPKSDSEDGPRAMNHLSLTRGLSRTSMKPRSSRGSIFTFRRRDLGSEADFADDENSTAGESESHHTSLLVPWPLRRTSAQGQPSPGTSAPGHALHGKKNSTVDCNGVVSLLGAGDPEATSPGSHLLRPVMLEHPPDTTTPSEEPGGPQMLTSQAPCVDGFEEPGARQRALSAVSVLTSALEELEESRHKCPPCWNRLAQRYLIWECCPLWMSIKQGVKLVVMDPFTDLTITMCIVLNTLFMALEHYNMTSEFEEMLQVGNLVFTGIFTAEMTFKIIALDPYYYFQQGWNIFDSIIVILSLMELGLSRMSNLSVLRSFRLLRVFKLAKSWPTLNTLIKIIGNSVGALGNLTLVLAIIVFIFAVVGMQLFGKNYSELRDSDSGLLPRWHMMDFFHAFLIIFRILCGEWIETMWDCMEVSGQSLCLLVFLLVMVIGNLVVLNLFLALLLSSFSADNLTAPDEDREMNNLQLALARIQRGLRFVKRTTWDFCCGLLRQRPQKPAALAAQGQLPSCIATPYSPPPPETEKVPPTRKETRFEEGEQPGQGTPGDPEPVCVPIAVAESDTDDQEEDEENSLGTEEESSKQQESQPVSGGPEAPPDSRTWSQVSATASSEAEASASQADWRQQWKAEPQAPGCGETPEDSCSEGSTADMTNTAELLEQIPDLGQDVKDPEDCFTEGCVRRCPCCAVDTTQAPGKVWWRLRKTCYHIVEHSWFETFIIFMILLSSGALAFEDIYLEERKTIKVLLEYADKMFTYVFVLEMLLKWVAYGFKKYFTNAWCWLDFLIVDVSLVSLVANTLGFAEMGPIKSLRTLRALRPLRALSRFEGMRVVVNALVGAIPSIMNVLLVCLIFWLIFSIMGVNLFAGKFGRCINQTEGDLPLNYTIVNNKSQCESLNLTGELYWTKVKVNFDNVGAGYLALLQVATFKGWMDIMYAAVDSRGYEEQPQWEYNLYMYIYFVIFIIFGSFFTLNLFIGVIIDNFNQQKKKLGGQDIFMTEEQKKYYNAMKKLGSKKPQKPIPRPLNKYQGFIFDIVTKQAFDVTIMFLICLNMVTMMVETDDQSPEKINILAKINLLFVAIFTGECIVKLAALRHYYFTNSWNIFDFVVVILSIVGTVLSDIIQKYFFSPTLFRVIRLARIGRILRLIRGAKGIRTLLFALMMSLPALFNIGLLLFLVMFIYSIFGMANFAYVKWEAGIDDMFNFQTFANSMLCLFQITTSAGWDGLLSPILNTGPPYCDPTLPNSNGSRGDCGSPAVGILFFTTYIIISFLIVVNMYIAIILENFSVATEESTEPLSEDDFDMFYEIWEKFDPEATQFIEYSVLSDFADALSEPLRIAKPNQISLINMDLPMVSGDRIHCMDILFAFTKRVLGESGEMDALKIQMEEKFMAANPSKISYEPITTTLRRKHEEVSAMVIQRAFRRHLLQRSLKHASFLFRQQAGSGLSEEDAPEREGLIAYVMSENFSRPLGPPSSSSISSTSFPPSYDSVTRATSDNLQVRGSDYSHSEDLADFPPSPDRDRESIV

[8] = target: T4, Alpha-1A adrenergic receptor (Homo sapiens, UniProt P35348)
T4 sequence (P35348 whole entry): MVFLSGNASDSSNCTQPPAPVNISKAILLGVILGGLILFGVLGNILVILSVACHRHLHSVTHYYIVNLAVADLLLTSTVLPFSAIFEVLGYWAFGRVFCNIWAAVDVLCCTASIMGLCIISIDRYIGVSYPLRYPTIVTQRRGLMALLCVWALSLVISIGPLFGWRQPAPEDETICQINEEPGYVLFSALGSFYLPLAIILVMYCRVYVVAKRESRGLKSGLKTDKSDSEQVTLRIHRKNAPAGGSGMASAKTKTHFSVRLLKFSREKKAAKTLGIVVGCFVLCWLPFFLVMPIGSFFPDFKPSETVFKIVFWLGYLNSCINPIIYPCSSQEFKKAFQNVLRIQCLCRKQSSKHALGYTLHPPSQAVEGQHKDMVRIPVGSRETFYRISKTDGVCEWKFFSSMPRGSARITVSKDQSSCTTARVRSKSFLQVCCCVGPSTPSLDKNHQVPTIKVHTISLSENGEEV

[9] = target: T5, Gamma-aminobutyric acid receptor subunit alpha-1/alpha-2/beta-2/gamma-2 (Homo sapiens, UniProt P14867+P18507+P47869+P47870); type: functional, cell-based
[10] = target: T5, Gamma-aminobutyric acid receptor subunit alpha-1/alpha-2/beta-2/gamma-2; type: functional, cell-based; remark: listed apart in the source
Histamine H1 receptor = Histamine H1 receptor (Homo sapiens, UniProt P35367); type: functional, cell-based
Chain of Histamine H1 receptor (P35367 whole entry): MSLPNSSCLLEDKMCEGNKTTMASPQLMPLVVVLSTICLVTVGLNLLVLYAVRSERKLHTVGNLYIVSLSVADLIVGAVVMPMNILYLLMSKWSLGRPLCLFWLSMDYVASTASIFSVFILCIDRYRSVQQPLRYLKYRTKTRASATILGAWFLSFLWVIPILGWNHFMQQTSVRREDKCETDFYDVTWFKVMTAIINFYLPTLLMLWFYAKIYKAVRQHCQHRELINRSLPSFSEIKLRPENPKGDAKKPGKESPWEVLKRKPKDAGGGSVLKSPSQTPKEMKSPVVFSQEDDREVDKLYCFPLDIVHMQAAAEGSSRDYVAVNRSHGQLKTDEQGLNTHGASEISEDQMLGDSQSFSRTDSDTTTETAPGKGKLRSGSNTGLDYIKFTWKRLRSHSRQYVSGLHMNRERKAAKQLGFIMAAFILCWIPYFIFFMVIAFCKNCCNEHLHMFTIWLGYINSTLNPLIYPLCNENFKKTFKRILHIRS

[11] = target: T6, Peroxisome proliferator-activated receptor gamma (Homo sapiens, UniProt P37231); type: functional
T6 sequence (P37231 whole entry): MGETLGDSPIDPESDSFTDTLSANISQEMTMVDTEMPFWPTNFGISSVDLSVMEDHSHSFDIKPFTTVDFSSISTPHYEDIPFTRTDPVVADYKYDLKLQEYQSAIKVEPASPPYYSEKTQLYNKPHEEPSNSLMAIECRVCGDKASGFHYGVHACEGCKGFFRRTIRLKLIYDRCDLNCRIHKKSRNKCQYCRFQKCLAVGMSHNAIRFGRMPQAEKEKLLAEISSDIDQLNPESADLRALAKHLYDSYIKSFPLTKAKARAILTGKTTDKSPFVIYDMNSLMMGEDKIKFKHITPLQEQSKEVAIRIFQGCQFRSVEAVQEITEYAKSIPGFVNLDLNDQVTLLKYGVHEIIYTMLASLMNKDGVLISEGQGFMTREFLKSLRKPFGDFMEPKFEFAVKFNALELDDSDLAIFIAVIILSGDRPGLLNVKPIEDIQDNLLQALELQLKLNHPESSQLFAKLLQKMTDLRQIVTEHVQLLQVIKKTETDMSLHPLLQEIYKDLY
Note: assay procedure not described here.

| SMILES | AC50 [1] | AC50 (B1 bradykinin receptor) | AC50 [2] | AC50 (D(4) dopamine receptor) | AC50 (Histamine H2 receptor) | AC50 [5] | AC50 [6] | AC50 [9] | AC50 [10] | also measured |
| --- | --- | --- | --- | --- | --- | --- | --- | --- | --- | --- |
| COc1ccc2c3c1O[C@H]1[C@@H](O)C=C[C@H]4[C@@H](C2)N(C)CC[C@@]341 [CODEINE] | > 30 µM | > 30 µM | > 10 µM | > 10 µM | > 10 µM | > 30 µM | > 30 µM | – | – | AC50 (Glucagon receptor): > 30 µM; AC50 [3]: > 10 µM; AC50 [4]: > 10 µM; AC50 [7]: > 30 µM; AC50 [8]: > 10 µM |
| CCN(CC)C(=O)N[C@H]1C[C@@H]2c3cccc4[nH]cc(c34)C[C@H]2N(C)C1 [TERGURIDE] | – | – | – | – | – | – | – | > 30 µM | > 30 µM | AC50 (Histamine H1 receptor): 7.49 µM; AC50 [11]: > 30 µM |
| C/C(O)=C(\C#N)C(=O)Nc1ccc(C(F)(F)F)cc1 [TERIFLUNOMIDE] | – | – | – | – | – | – | – | > 30 µM | > 30 µM | AC50 [11]: > 30 µM; AC50 [7]: > 50 µM |
| CCc1c(Cl)c(O)c(Cl)c(O)c1C(=O)O[C@H]1[C@H](O)[C@H](OC)[C@H](OC/C2=C\C=C\C[C@H](O)/C(C)=C/[C@H](CC)[C@@H](O[C@@H]3OC(C)(C)[C@@H](OC(=O)C(C)C)[C@H](O)[C@@H]3O)/C(C)=C/C(C)=C/C[C@@H]([C@@H](C)O)OC2=O)O[C@@H]1C [FIDAXOMICIN] | > 30 µM | > 30 µM | > 10 µM | > 10 µM | > 10 µM | > 30 µM | > 30 µM | – | – | AC50 (Glucagon receptor): > 30 µM; AC50 [8]: > 10 µM |
| CCN1CCN(C(=O)N[C@@H](C(=O)N[C@@H]2C(=O)N3C(C(=O)O)=C(CSc4nnnn4C)CS[C@H]23)c2ccc(O)cc2)C(=O)C1=O [CEFOPERAZONE] | – | – | – | – | – | – | – | > 30 µM | > 30 µM | AC50 [11]: > 30 µM |
| CNS(=O)(=O)Cc1ccc2[nH]cc(CCN(C)C)c2c1 | > 30 µM | > 30 µM | > 10 µM | > 10 µM | > 10 µM | > 30 µM | > 30 µM | > 30 µM | > 30 µM | AC50 (Glucagon receptor): > 30 µM; AC50 [3]: > 10 µM; AC50 [4]: 4.67 µM; AC50 [8]: > 10 µM |
| CCCN(CCC)C(=O)C(CCC(=O)O)NC(=O)c1ccccc1 (stereo unspecified) [PROGLUMIDE] | > 30 µM | > 30 µM | > 10 µM | > 10 µM | > 10 µM | > 30 µM | > 30 µM | – | – | AC50 (Glucagon receptor): > 30 µM |
| N#Cc1ccc([C@H]2CCc3cncn32)c(F)c1 [OSILODROSTAT] | – | > 10 µM | > 10 µM | > 10 µM | > 10 µM | > 10 µM | > 10 µM | – | – | AC50 [3]: > 10 µM; AC50 [4]: > 10 µM; AC50 [8]: > 10 µM |
| NCC(=O)CCC(=O)O [AMINOLEVULINIC ACID] | – | – | – | – | – | – | – | > 30 µM | > 30 µM | AC50 (Histamine H1 receptor): > 30 µM |
| CCCc1nc(C(C)(C)O)c(C(=O)OCc2oc(=O)oc2C)n1Cc1ccc(-c2ccccc2-c2nnn[nH]2)cc1 [OLMESARTAN MEDOXOMIL] | > 30 µM | > 50 µM | > 10 µM | > 10 µM | – | > 50 µM | > 30 µM | – | – | AC50 (Glucagon receptor): > 50 µM; AC50 [3]: > 10 µM; AC50 [4]: > 10 µM; AC50 [8]: > 10 µM |
| O=C(NCCNCC(O)COc1ccc(O)cc1)N1CCOCC1 (stereo unspecified) [XAMOTEROL] | – | – | – | – | – | – | – | > 30 µM | > 30 µM | AC50 (Histamine H1 receptor): > 30 µM |
| CC[C@@H]1C(=O)OC[C@@H]1Cc1cncn1C [PILOCARPINE] | – | – | > 10 µM | – | – | – | – | – | – | AC50 (Histamine H1 receptor): > 30 µM |
| COC(=O)C1=C(C)NC(C)=C(C(=O)OC2CCCN(Cc3ccccc3)C2)C1c1cccc([N+](=O)[O-])c1 (stereo unspecified) [BENIDIPINE] | – | – | – | – | – | – | – | – | – | AC50 [7]: > 50 µM |
| CC(C)(C)c1cc(C(C)(C)C)c(NC(=O)c2c[nH]c3ccccc3c2=O)cc1O [IVACAFTOR] | 4.4 µM | – | > 10 µM | – | > 10 µM | – | – | – | – | – |
| CO/N=C(\C(=O)N[C@@H]1C(=O)N2C(C(=O)O)=C(CSc3nnnn3C)CS[C@H]12)c1csc(N)n1 [CEFMENOXIME] | – | – | – | – | – | – | – | – | – | AC50 [11]: > 30 µM |
| Clc1ccc(CCCOCCCN2CCCCC2)cc1 [PITOLISANT] | – | – | – | – | – | – | – | – | – | AC50 [7]: 32 µM |
| CN1CCN(CC/C=C2/c3ccccc3Sc3ccc(S(=O)(=O)N(C)C)cc32)CC1 [THIOTHIXENE] | > 30 µM | > 30 µM | > 10 µM | 0.78 µM | 0.145 µM | > 30 µM | > 30 µM | – | – | AC50 (Glucagon receptor): > 30 µM; AC50 [3]: 0.455 µM; AC50 [4]: 0.254 µM; AC50 [8]: 0.0624 µM |
| COC(=O)C1=C(C)NC(C)=C(C(=O)OC(C)(C)CN(C)CCC(c2ccccc2)c2ccccc2)C1c1cccc([N+](=O)[O-])c1 (stereo unspecified) [LERCANIDIPINE] | – | – | – | – | – | – | – | – | – | AC50 [7]: > 50 µM |
| CC(=O)O[C@H]1CC[C@@]2(C)C(=CC[C@@H]3[C@@H]2CC[C@]2(C)C(c4cccnc4)=CC[C@@H]32)C1 [ABIRATERONE ACETATE] | – | – | – | – | – | – | – | – | – | AC50 [11]: > 30 µM; AC50 [7]: > 30 µM |
| CC(C)OC(=O)CCC/C=C\C[C@@H]1[C@@H](CC[C@@H](O)CCc2ccccc2)[C@H](O)C[C@@H]1O [LATANOPROST] | – | – | – | – | – | – | – | > 30 µM | > 30 µM | AC50 (Histamine H1 receptor): > 30 µM; AC50 [11]: > 30 µM |
| CN1C(=O)C(O)N=C(c2ccccc2)c2cc(Cl)ccc21 (stereo unspecified) [TEMAZEPAM] | > 30 µM | > 30 µM | > 10 µM | > 10 µM | > 10 µM | > 30 µM | > 30 µM | – | – | AC50 (Glucagon receptor): > 30 µM; AC50 [8]: > 10 µM |
| CCC1(CC)C(=O)NCC(C)C1=O (stereo unspecified) [METHYPRYLON] | – | – | – | – | – | – | – | > 30 µM | > 30 µM | AC50 (Histamine H1 receptor): > 30 µM; AC50 [11]: > 30 µM |
| CC(CC(c1ccccc1)c1ccccc1)NC(C)(C)C (stereo unspecified) [TERODILINE] | – | – | – | – | – | – | – | – | – | AC50 [7]: 8.65 µM |
| CN1CCC(=C2c3ccccc3CCc3sccc32)CC1 [PIZOTYLINE] | – | – | – | – | – | – | – | > 30 µM | > 30 µM | AC50 (Histamine H1 receptor): 0.0681 µM |
